Reference: PubChem BioAssay (NCI)
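Interpolation was linear, between the two tested concentrations surrounding the appropriate level; five concentrations were tested over 48 hours in 96-well plates. GI50 = concentration required for 50% inhibition of growth. TGI: total growth inhibition.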

What was measured:
Assay in all cases: inhibition of tumour cell growth, NCI panel, 48 h
786-0 renal = tested on: 786-0 renal
MCF7 breast = tested on: MCF7 breast
MDA-MB-435 = tested on: MDA-MB-435
NCI-H522 lung = tested on: NCI-H522 lung
SF-268 CNS = tested on: SF-268 CNS
SF-295 CNS = tested on: SF-295 CNS
SK-MEL-5 melanoma = tested on: SK-MEL-5 melanoma
SNB-75 CNS = tested on: SNB-75 CNS
SR leukemia = tested on: SR leukemia
UACC-62 melanoma = tested on: UACC-62 melanoma
SK-MEL-2 melanoma = tested on: SK-MEL-2 melanoma

CCCCCCCC(=O)N1C2CC3CCC2(CS1(=O)=O)C3(C)C (stereo not drawn)
TGI (786-0 renal): 31.7 µM | TGI (MCF7 breast): 35.8 µM | TGI (MDA-MB-435): > 100 µM | TGI (NCI-H522 lung): 48.5 µM | TGI (SF-268 CNS): > 100 µM | TGI (SF-295 CNS): 50.8 µM | TGI (SK-MEL-5 melanoma): 34.4 µM | TGI (SNB-75 CNS): > 100 µM | TGI (SR leukemia): 40.8 µM | TGI (UACC-62 melanoma): 55.5 µM

Cc1[nH]n(C(=O)Cc2ccccc2)c(=O)c1/C=C1\C(=O)C=Cc2ccccc21
TGI (786-0 renal): > 100 µM | TGI (NCI-H522 lung): > 100 µM | TGI (SF-268 CNS): > 100 µM | TGI (SF-295 CNS): > 100 µM | TGI (SK-MEL-5 melanoma): > 100 µM | TGI (SNB-75 CNS): > 100 µM | TGI (SR leukemia): > 100 µM

CC(=O)C1=C(C)N2C(=NC3=C(CCc4ccccc43)C2c2ccc(Cl)cc2)S1 (stereo not drawn)
TGI (786-0 renal): > 100 µM | TGI (MCF7 breast): > 100 µM | TGI (MDA-MB-435): > 100 µM | TGI (NCI-H522 lung): 82.7 µM | TGI (SF-268 CNS): > 100 µM | TGI (SF-295 CNS): > 100 µM | TGI (SK-MEL-2 melanoma): > 100 µM | TGI (SK-MEL-5 melanoma): > 100 µM | TGI (SNB-75 CNS): > 100 µM | TGI (UACC-62 melanoma): > 100 µM

CCOC(=O)c1nc2ccccc2nc1Oc1ccc(F)cc1
TGI (786-0 renal): > 100 µM | TGI (MCF7 breast): > 100 µM | TGI (MDA-MB-435): > 100 µM | TGI (SF-268 CNS): > 100 µM | TGI (SF-295 CNS): > 100 µM | TGI (SK-MEL-2 melanoma): > 100 µM | TGI (SK-MEL-5 melanoma): > 100 µM | TGI (SNB-75 CNS): > 100 µM | TGI (UACC-62 melanoma): > 100 µM

N#CC(C#N)=CNC(=S)Nc1ccc(S(=O)(=O)Nc2nccs2)cc1
TGI (786-0 renal): > 100 µM | TGI (MCF7 breast): > 100 µM | TGI (MDA-MB-435): > 100 µM | TGI (SF-268 CNS): > 100 µM | TGI (SF-295 CNS): > 100 µM | TGI (SK-MEL-2 melanoma): > 100 µM | TGI (SK-MEL-5 melanoma): > 100 µM | TGI (SNB-75 CNS): > 100 µM | TGI (UACC-62 melanoma): > 100 µM

CC1=C(C(N)=O)C(c2ccncc2)C(C#N)C(=O)N1 (stereo not drawn)
TGI (786-0 renal): > 100 µM | TGI (MCF7 breast): > 100 µM | TGI (MDA-MB-435): > 100 µM | TGI (SF-268 CNS): > 100 µM | TGI (SF-295 CNS): > 100 µM | TGI (SK-MEL-2 melanoma): > 100 µM | TGI (SK-MEL-5 melanoma): > 100 µM | TGI (SNB-75 CNS): > 100 µM | TGI (SR leukemia): > 100 µM | TGI (UACC-62 melanoma): > 100 µM

CCCCc1c2c([n+]([O-])c3c1CCCC3)CCCC2
TGI (786-0 renal): > 100 µM | TGI (NCI-H522 lung): 5.33 µM | TGI (SF-268 CNS): > 100 µM | TGI (SF-295 CNS): > 100 µM | TGI (SK-MEL-5 melanoma): > 100 µM | TGI (SR leukemia): > 100 µM

N#CC(NNC(=O)c1ccccc1O)c1ccccc1O (stereo not drawn)
TGI (786-0 renal): > 100 µM | TGI (NCI-H522 lung): > 100 µM | TGI (SF-268 CNS): > 100 µM | TGI (SF-295 CNS): > 100 µM | TGI (SK-MEL-2 melanoma): > 100 µM | TGI (SK-MEL-5 melanoma): 42.3 µM | TGI (SNB-75 CNS): > 100 µM | TGI (SR leukemia): > 100 µM | TGI (UACC-62 melanoma): 16.9 µM

C/C(=N\NC(N)=O)C(CN1CCOCC1)C(c1ccccc1)c1c(O)c2ccccc2oc1=O (stereo not drawn)
TGI (786-0 renal): > 100 µM | TGI (MCF7 breast): > 100 µM | TGI (MDA-MB-435): > 100 µM | TGI (NCI-H522 lung): > 100 µM | TGI (SF-268 CNS): > 100 µM | TGI (SK-MEL-2 melanoma): > 100 µM | TGI (SK-MEL-5 melanoma): > 100 µM | TGI (SNB-75 CNS): > 100 µM | TGI (SR leukemia): > 100 µM | TGI (UACC-62 melanoma): > 100 µM

c1ccc2sc(C3(N4CCCCCC4)CCCCC3)cc2c1
TGI (786-0 renal): 42.9 µM | TGI (MCF7 breast): 32.9 µM | TGI (MDA-MB-435): 71.1 µM | TGI (NCI-H522 lung): 36.4 µM | TGI (SF-268 CNS): 52.5 µM | TGI (SF-295 CNS): 59.1 µM | TGI (SK-MEL-5 melanoma): 33.3 µM | TGI (SNB-75 CNS): 62.1 µM | TGI (UACC-62 melanoma): 45.7 µM

COc1ccc2nc3cc(Cl)ccc3c(NCCCN(C)CCCNc3ccc4ncn5c6ccccc6c(=O)c3c45)c2c1
TGI (786-0 renal): 8.7 µM | TGI (MDA-MB-435): 5.23 µM | TGI (NCI-H522 lung): 1.73 µM | TGI (SF-268 CNS): 12.6 µM | TGI (SF-295 CNS): 5.37 µM | TGI (SK-MEL-2 melanoma): 7.23 µM | TGI (SK-MEL-5 melanoma): 4.62 µM | TGI (SNB-75 CNS): 7.55 µM | TGI (SR leukemia): > 7.84 µM | TGI (UACC-62 melanoma): 7.93 µM

Cc1cccc2c(=O)c3cccc(CC(=O)O)c3oc12
TGI (786-0 renal): > 100 µM | TGI (MCF7 breast): > 100 µM | TGI (MDA-MB-435): > 100 µM | TGI (NCI-H522 lung): > 100 µM | TGI (SF-268 CNS): > 100 µM | TGI (SF-295 CNS): > 100 µM | TGI (SK-MEL-2 melanoma): > 100 µM | TGI (SK-MEL-5 melanoma): > 100 µM | TGI (SR leukemia): > 100 µM | TGI (UACC-62 melanoma): > 100 µM

C/C(=C/C(=O)N(C)c1ccccc1Cl)O[Si](C(C)C)(C(C)C)C(C)C
TGI (786-0 renal): 33.1 µM | TGI (MDA-MB-435): > 100 µM | TGI (NCI-H522 lung): 31.8 µM | TGI (SF-268 CNS): 46.4 µM | TGI (SF-295 CNS): 74.8 µM | TGI (SK-MEL-5 melanoma): 30.8 µM | TGI (SNB-75 CNS): > 100 µM

O=c1oc2cc(O)ccc2c(O)c1C(c1ccc(/C=C/c2ccccc2)cc1)c1c(O)c2ccc(O)cc2oc1=O
TGI (786-0 renal): > 100 µM | TGI (MCF7 breast): > 100 µM | TGI (MDA-MB-435): > 100 µM | TGI (NCI-H522 lung): > 100 µM | TGI (SF-268 CNS): > 100 µM | TGI (SF-295 CNS): > 100 µM | TGI (SK-MEL-2 melanoma): > 100 µM | TGI (SK-MEL-5 melanoma): 95 µM | TGI (SNB-75 CNS): > 100 µM | TGI (UACC-62 melanoma): > 100 µM

C/C(=C\COP(=O)(O)CP(=O)(O)O)CC/C=C(\C)CNc1ccccc1
TGI (786-0 renal): > 100 µM | TGI (MCF7 breast): > 100 µM | TGI (MDA-MB-435): > 100 µM | TGI (NCI-H522 lung): > 100 µM | TGI (SF-268 CNS): > 100 µM | TGI (SF-295 CNS): > 100 µM | TGI (SK-MEL-2 melanoma): > 100 µM | TGI (SK-MEL-5 melanoma): > 100 µM | TGI (SNB-75 CNS): > 100 µM | TGI (UACC-62 melanoma): > 100 µM

COc1cc(N(CCC#N)CCC#N)ccc1/C(N=Nc1cccc([N+](=O)[O-])c1)=N\NC(=O)c1ccc(C)cc1
TGI (786-0 renal): > 100 µM | TGI (MCF7 breast): > 100 µM | TGI (MDA-MB-435): > 100 µM | TGI (NCI-H522 lung): > 100 µM | TGI (SF-268 CNS): > 100 µM | TGI (SF-295 CNS): > 100 µM | TGI (SK-MEL-2 melanoma): > 100 µM | TGI (SK-MEL-5 melanoma): > 100 µM | TGI (UACC-62 melanoma): > 100 µM

CCc1c(N=[N+]=[N-])c2ccccc2oc1=O
TGI (786-0 renal): > 100 µM | TGI (MCF7 breast): > 100 µM | TGI (MDA-MB-435): > 100 µM | TGI (NCI-H522 lung): > 100 µM | TGI (SF-268 CNS): > 100 µM | TGI (SF-295 CNS): > 100 µM | TGI (SNB-75 CNS): > 100 µM | TGI (SR leukemia): > 100 µM | TGI (UACC-62 melanoma): > 100 µM

COC(=O)C(Cc1ccc2c(c1)OCO2)(NC(=O)c1ccccc1)P(=O)(OC)OC (stereo not drawn)
TGI (NCI-H522 lung): > 100 µM | TGI (SF-268 CNS): > 100 µM | TGI (SF-295 CNS): > 100 µM | TGI (SK-MEL-2 melanoma): > 100 µM | TGI (SK-MEL-5 melanoma): > 100 µM | TGI (SNB-75 CNS): > 100 µM | TGI (SR leukemia): > 100 µM | TGI (UACC-62 melanoma): > 100 µM

COc1ccc(N(c2ccc(C#N)cc2)c2ccc(C#N)cc2)cc1
TGI (786-0 renal): > 100 µM | TGI (MCF7 breast): > 100 µM | TGI (MDA-MB-435): > 100 µM | TGI (NCI-H522 lung): 82.9 µM | TGI (SF-268 CNS): > 100 µM | TGI (SF-295 CNS): > 100 µM | TGI (SK-MEL-2 melanoma): > 100 µM | TGI (SK-MEL-5 melanoma): > 100 µM | TGI (SNB-75 CNS): > 100 µM | TGI (UACC-62 melanoma): > 100 µM

O[C@@H]1CCCCN1Cc1cc2cc3c(cc2c2cc(OCc4ccccc4)ccc12)OCO3
GI50 (MCF7 breast): 1.33 µM | TGI (MCF7 breast): 2.73 µM | GI50 (MDA-MB-435): 1.63 µM | TGI (MDA-MB-435): 3.06 µM | GI50 (NCI-H522 lung): 1.49 µM | TGI (NCI-H522 lung): 2.91 µM | GI50 (SF-268 CNS): 1.26 µM | TGI (SF-268 CNS): 2.61 µM | GI50 (SF-295 CNS): 1.59 µM | TGI (SF-295 CNS): 3.03 µM | GI50 (SK-MEL-2 melanoma): 1.7 µM | TGI (SK-MEL-2 melanoma): 3.16 µM | GI50 (SK-MEL-5 melanoma): 1.62 µM | TGI (SK-MEL-5 melanoma): 3.09 µM | GI50 (SNB-75 CNS): 1.66 µM | TGI (SNB-75 CNS): 3.08 µM | GI50 (UACC-62 melanoma): 1.89 µM | TGI (UACC-62 melanoma): 3.46 µM

CC(C)C1CC(CO)(CNc2nc(N)nc(Cl)c2C=O)C1 (stereo not drawn)
TGI (786-0 renal): > 100 µM | TGI (MCF7 breast): > 100 µM | TGI (MDA-MB-435): 4.58 µM | TGI (NCI-H522 lung): 1.14 µM | TGI (SF-268 CNS): > 23.7 µM | TGI (SF-295 CNS): 44.4 µM | TGI (SK-MEL-2 melanoma): 3.31 µM | TGI (SNB-75 CNS): 15.4 µM | TGI (UACC-62 melanoma): 4.11 µM

COc1cc(/C=C(\C#N)C(=O)c2ccccc2)cc(OC)c1OC
TGI (786-0 renal): > 100 µM | TGI (NCI-H522 lung): > 100 µM | TGI (SF-268 CNS): > 100 µM | TGI (SF-295 CNS): > 100 µM | TGI (SK-MEL-2 melanoma): > 100 µM | TGI (SK-MEL-5 melanoma): > 100 µM | TGI (SNB-75 CNS): > 100 µM | TGI (SR leukemia): > 100 µM | TGI (UACC-62 melanoma): > 100 µM
